Data reported in ChEMBL document CHEMBL5226288, “A perspective on medicinal chemistry approaches towards adenomatous polyposis coli and Wnt signal based colorectal cancer inhibitors” (Eur J Med Chem, 2021).
≈ marks a conversion by molar mass, not a printed value. Non-standard residues stand in square brackets, D forms with d. Residues, ends and D or L forms follow the SMILES beside them. Hica(2S) = CC(C)C[C@H](O)C(=O)O; NMeV = CN[C@H](C(=O)O)C(C)C; NMeA = CN[C@@H](C)C(=O)O; βAla = NCCC(=O)O

Key:
[1] = tested on: HCT-116; test: Anticancer activity against human HCT-116 cells assessed as reduction in cell viability incubated for 72 hrs; type: functional, cell-based; conditions: HCT-116, 72 h
[2] = tested on: SW480; test: Anticancer activity against human SW480 cells assessed as reduction in cell viability incubated for 72 hrs; type: functional, cell-based; conditions: SW480, 72 h
[3] = tested on: SW480; test: Antiproliferative activity against human SW480 cells assessed as reduction in cell viability incubated for 72 hrs by MTT assay; type: functional, cell-based; conditions: SW480, 72 h
[4] = target: Ubiquitin carboxyl-terminal hydrolase 7 (Homo sapiens, UniProt Q93009); test: Inhibition of recombinant full length wild type human Flag-tagged USP7 expressed in human HEK293 cells using Ub-AMC as substrate by fluorometric assay
Chain of Ubiquitin carboxyl-terminal hydrolase 7 (Q93009 whole entry): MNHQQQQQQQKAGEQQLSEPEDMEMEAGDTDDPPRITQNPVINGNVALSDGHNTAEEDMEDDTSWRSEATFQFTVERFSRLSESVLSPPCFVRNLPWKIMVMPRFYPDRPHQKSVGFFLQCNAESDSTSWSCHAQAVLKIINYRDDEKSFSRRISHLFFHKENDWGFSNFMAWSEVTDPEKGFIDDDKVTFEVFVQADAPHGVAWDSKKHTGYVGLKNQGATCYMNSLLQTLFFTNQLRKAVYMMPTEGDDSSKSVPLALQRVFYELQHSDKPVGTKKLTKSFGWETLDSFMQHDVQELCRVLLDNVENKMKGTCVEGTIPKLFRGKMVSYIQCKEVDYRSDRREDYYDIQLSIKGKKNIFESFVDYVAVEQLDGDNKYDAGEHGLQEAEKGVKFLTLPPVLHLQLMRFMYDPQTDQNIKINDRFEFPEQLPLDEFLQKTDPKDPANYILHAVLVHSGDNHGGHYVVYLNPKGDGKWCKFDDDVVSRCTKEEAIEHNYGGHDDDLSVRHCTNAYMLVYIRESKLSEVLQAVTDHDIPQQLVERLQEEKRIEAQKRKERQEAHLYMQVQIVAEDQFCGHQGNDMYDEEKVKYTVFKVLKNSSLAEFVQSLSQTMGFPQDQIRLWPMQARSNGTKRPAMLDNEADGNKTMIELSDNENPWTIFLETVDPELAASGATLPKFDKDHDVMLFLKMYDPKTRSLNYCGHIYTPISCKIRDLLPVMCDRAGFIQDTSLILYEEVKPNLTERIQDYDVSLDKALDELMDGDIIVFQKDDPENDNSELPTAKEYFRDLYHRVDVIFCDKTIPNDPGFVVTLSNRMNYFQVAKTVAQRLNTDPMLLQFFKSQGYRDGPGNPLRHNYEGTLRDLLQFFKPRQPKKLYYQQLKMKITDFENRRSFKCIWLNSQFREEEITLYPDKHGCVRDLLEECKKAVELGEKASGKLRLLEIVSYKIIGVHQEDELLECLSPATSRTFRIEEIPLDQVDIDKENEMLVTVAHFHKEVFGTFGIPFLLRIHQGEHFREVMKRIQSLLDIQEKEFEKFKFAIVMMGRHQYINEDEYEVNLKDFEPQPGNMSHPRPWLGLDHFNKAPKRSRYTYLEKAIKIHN

[5] = tested on: SW480; test: Anticancer activity against human SW480 cells assessed as reduction in cell viability incubated for 72 hrs by MTT assay; type: functional, cell-based; conditions: SW480, 72 h
[6] = tested on: HCT-116; test: Anticancer activity against human HCT-116 cells assessed as reduction in cell viability incubated for 48 hrs by MTT assay; type: functional, cell-based; conditions: HCT-116, 48 h
[7] = tested on: DLD-1; test: Anticancer activity against human DLD-1 cells assessed as reduction in cell viability incubated for 48 hrs by MTT assay; type: functional, cell-based; conditions: DLD-1, 48 h
[8] = Inhibition of Wnt signalling in human HEK293T cells expressing Topflash and renilla luciferase reporter gene incubated for 24 hrs by Dual-luciferase assay; type: cell-based; conditions: HEK-293T
[9] = tested on: SW480; test: Anticancer activity against human SW480 cells assessed as reduction in cell viability incubated for 24 hrs by MTT assay; type: functional, cell-based; conditions: SW480, 24 h
[10] = tested on: LoVo; test: Anticancer activity against human LoVo cells assessed as reduction in cell viability incubated for 24 hrs by MTT assay; type: functional, cell-based
[11] = tested on: HCT-116; test: Antiproliferative activity against human HCT-116 cells assessed as reduction in cell viability incubated for 72 hrs by MTS assay; type: functional, cell-based; conditions: HCT-116, 72 h
[12] = tested on: DLD-1; test: Antiproliferative activity against human DLD-1 cells assessed as reduction in cell viability by WST assay; type: functional, cell-based
[13] = tested on: SW480; test: Antiproliferative activity against human SW480 cells assessed as inhibition of cell growth incubated for 48 hrs by MTS assay; type: functional, cell-based; conditions: SW480, 48 h
[14] = target: CBP/beta catenin (Homo sapiens, UniProt P35222+Q92793); test: Antagonist activity at CBP/beta-catenin (unknown origin) protein-protein interaction; type: protein assay
Chain of CBP/beta catenin (Q92793 whole entry): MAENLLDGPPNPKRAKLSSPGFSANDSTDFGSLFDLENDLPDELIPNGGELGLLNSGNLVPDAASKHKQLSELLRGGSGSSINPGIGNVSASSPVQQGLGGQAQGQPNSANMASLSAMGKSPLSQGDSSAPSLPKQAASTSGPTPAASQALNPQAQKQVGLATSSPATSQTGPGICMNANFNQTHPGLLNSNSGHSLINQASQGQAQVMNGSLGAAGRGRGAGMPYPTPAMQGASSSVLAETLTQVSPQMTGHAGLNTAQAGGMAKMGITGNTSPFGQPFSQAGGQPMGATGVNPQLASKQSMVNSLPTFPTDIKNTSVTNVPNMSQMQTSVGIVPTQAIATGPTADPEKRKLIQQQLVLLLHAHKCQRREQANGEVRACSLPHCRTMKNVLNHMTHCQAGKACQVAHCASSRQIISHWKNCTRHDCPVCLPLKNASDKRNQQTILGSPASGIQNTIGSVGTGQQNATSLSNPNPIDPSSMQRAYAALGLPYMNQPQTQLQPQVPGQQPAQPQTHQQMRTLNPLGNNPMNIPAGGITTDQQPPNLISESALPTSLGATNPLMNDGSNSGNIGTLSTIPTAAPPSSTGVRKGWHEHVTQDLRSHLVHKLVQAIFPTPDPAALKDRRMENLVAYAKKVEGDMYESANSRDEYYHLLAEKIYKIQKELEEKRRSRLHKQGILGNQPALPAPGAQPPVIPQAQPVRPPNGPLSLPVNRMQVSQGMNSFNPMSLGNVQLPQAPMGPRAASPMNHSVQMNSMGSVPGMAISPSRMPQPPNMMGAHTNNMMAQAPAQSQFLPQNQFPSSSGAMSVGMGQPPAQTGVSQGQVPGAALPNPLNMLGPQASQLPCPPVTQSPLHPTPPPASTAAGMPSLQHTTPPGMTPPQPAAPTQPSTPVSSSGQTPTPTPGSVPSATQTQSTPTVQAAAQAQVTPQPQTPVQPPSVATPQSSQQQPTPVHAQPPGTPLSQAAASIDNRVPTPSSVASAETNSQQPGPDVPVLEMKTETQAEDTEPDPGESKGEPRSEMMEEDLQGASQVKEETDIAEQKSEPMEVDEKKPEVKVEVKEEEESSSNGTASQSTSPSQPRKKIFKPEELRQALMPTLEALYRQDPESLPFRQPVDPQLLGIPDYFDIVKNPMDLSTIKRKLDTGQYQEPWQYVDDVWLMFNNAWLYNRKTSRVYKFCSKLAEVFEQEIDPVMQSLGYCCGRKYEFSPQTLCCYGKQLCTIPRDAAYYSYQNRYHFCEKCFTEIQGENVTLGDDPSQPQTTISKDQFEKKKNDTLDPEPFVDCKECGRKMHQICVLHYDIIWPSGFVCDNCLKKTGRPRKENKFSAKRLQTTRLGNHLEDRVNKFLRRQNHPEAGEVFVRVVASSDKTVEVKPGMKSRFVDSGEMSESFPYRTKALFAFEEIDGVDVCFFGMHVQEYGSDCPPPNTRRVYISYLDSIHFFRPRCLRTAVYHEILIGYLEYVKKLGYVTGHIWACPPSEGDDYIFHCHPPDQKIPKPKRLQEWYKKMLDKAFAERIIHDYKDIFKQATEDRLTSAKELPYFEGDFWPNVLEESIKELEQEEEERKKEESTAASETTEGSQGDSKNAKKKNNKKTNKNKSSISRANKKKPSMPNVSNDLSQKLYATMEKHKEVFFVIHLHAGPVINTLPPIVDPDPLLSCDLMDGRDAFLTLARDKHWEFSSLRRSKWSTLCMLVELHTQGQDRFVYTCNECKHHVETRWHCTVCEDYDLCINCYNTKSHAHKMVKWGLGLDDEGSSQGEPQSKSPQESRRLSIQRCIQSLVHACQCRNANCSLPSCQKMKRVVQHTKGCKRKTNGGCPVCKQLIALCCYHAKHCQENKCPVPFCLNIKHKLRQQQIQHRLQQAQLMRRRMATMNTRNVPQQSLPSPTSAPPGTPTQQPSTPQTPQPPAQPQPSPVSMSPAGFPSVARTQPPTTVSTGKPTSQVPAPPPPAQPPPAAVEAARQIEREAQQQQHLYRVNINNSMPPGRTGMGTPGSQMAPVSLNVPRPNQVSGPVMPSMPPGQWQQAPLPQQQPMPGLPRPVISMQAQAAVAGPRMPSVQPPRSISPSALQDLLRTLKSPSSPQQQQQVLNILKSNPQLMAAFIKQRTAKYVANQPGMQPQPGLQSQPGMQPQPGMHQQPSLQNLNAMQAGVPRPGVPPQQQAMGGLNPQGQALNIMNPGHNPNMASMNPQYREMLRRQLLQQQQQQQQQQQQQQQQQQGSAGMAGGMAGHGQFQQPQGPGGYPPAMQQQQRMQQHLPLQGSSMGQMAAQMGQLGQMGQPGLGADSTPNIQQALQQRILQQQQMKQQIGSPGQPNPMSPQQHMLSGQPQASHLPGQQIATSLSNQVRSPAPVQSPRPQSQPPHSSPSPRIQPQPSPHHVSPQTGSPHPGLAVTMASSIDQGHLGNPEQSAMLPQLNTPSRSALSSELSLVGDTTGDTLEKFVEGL
Chain of CBP/beta catenin (P35222 whole entry): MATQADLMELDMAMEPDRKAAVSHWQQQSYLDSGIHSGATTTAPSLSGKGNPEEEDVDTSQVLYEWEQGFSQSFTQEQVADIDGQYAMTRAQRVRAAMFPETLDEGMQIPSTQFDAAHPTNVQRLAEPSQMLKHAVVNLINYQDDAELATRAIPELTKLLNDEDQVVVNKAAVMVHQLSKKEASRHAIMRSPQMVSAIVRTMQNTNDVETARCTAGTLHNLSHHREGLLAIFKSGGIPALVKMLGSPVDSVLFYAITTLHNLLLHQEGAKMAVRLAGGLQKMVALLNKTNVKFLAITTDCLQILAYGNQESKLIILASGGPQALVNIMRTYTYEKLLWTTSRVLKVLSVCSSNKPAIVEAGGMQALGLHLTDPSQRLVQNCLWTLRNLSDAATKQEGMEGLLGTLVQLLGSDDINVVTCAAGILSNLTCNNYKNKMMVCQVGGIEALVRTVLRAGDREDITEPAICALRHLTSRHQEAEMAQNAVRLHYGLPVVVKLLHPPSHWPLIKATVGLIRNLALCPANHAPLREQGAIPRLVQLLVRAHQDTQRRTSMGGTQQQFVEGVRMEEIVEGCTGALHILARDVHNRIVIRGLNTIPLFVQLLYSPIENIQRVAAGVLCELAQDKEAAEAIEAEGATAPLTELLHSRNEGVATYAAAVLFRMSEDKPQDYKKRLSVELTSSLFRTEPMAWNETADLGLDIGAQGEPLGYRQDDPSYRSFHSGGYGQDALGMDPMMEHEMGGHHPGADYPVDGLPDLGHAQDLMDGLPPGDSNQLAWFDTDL

[15] = Inhibition of Wnt1 signalling in human SW480 cells expressing ST-Luc and renilla firefly luciferase incubated for 24 hrs by dual-luciferase reporter assay; type: cell-based; conditions: SW480, 24 h
[16] = Inhibition of Wnt1 signalling in human HCT-116 cells expressing ST-Luc and renilla firefly luciferase incubated for 24 hrs by dual-luciferase reporter assay; type: cell-based; conditions: HCT-116, 24 h
[17] = tested on: SW480; test: Antiproliferative activity against human SW480 cells expressing firefly and renilla luciferase assessed as reduction in cell growth incubated for 3 hrs by TOPFlash luciferase assay; type: functional, cell-based; conditions: SW480, 3 h
[18] = target: DNA polymerase beta (Homo sapiens, UniProt P06746); test: Inhibition of human DNA polymerase beta by fluorescence anisotropy
[19] = target: Catenin beta-1/Transcription factor 7 (Homo sapiens, UniProt P35222+P36402); test: Inhibition of human beta-catenin (142 to 686 residues)/human TCF (7 to 51 residues) protein-protein interaction incubated for 3 hrs by fluorescence polarization assay
Chain of Catenin beta-1/Transcription factor 7 (P36402 whole entry, the tested form may be a part): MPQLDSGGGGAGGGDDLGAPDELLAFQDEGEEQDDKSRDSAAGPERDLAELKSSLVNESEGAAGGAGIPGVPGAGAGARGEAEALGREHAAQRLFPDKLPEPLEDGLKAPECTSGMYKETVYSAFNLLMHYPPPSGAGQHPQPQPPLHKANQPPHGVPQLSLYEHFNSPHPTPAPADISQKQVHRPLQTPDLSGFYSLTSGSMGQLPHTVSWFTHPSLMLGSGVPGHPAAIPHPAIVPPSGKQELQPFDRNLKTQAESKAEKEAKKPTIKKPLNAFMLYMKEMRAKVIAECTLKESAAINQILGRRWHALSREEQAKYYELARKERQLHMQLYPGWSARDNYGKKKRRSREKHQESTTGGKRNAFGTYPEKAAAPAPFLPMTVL
Chain of Catenin beta-1/Transcription factor 7 (P35222 whole entry, the tested form may be a part): as the sequence (P35222 whole entry) above

[20] = tested on: SW480; test: Anticancer activity against human SW480 cells assessed as cell growth inhibition incubated for 24 hrs by MTS assay; type: functional
[21] = tested on: SW48; test: Anticancer activity against human SW48 cells assessed as cell growth inhibition; type: functional, cell-based
[22] = Anticancer activity against human colorectal cancer cell lines assessed as reduction in cell viability incubated for 24 to 72 hrs by MTT assay; type: functional, cell-based
[23] = tested on: LoVo; test: Antiproliferative activity against human LoVo cells assessed as reduction in cell viability; type: functional, cell-based
[24] = tested on: HT-29; test: Antiproliferative activity against human HT-29 cells assessed as reduction in cell viability; type: functional, cell-based
[25] = tested on: HCT-116; test: Antiproliferative activity against human HCT-116 cells assessed as reduction in cell proliferation incubated for 72 hrs by CellTiter-Glo assay; type: functional, cell-based; conditions: HCT-116, 72 h
[26] = tested on: SW480; test: Anticancer activity against human SW480 cells assessed as reduction in cell viability incubated for 12 to 24 hrs by MTS assay; type: functional, cell-based
[27] = tested on: KM12; test: Anticancer activity against human KM12 cells assessed as reduction in cell viability incubated for 24 hrs by CCK-8 assay; type: functional, cell-based; conditions: KM12, 24 h
[28] = tested on: SW-620; test: Anticancer activity against human SW-620 cells assessed as reduction in cell viability incubated for 24 hrs by CCK-8 assay; type: functional, cell-based; conditions: SW-620, 24 h
[29] = tested on: HCT-116; test: Antiproliferative activity against human HCT-116 cells assessed as reduction in cell proliferation incubated for 12 to 24 hrs by CCK-8 assay; type: functional, cell-based
[30] = tested on: SW480; test: Antiproliferative activity against human SW480 cells assessed as reduction in cell proliferation incubated for 12 to 24 hrs by CCK-8 assay; type: functional, cell-based
[31] = tested on: SW480; test: Antiproliferative activity against human SW480 cells assessed as reduction in cell viability incubated for 24 hrs by CCK-8 assay; type: functional, cell-based; conditions: SW480, 24 h
[32] = tested on: HCT-116; test: Anticancer activity against human HCT-116 cells assessed as reduction in cell proliferation incubated for 48 hrs by sulforhodamine B assay; type: functional, cell-based; conditions: HCT-116, 48 h
[33] = tested on: SW480; test: Anticancer activity against human SW480 cells assessed as reduction in cell proliferation incubated for 48 hrs by sulforhodamine B assay; type: functional, cell-based; conditions: SW480, 48 h

Cc1cc(/C=C/c2ccc3cc(N(C)C)ccc3[n+]2C)c(C)n1-c1ccccc1
EC50 [1]: 0.043 µM
EC50 [2]: 0.056 µM

C=C1C(=O)[C@]23CC[C@H]1C[C@H]2[C@@]12CCC[C@@](C)(COC1=O)[C@H]2C[C@H]3O
IC50 [3]: 1.7 µM

C=C1C(=O)O[C@@H]2[C@H]3O[C@]3(C)CC/C=C(\C)CC[C@@H]12
IC50 [4]: 6.58 µM

C[C@@H]1O[C@H]2O[C@H]3[C@@H](OC[C@H](O)[C@@H]3O)OC(=O)[C@@H]3CC(C)(C)C[C@H]4C5=CC[C@@H]6[C@@]7(C)C[C@H](O)[C@H](O[C@@H]8O[C@H](CO)[C@@H](O)[C@H](O)[C@H]8O[C@@H]8OC[C@H](OC(=O)C[C@](C)(O)CC(=O)O[C@@H]1[C@@H](O[C@@H]1OC[C@@H](O)[C@H](O)[C@H]1O)[C@H]2O)[C@H](O)[C@H]8O)[C@@](C)(CO)[C@@H]7CC[C@@]6(C)[C@]5(C)CCC34
IC50 [5]: 40 µM

CCCCCCCCCCCCCC(C(=O)O)C(O)(CC(=O)OC)C(=O)O (stereo not drawn)
IC50 [6]: 100 µM
IC50 [7]: 100 µM

CCn1c2ccccc2c2cc(C(=O)OC(C)C)nc(-c3cccc4ccccc34)c21
IC50 [8]: 2.8 µM

C[C@@H]1O[C@@H](O[C@H]2[C@H](O[C@H]3[C@H](O[C@H]4CC[C@@]5(C)C6CC=C7[C@@H]8CC(C)(C)CC[C@]8(C(=O)O)CC[C@]7(C)C6(C)CC[C@H]5C4(C)C)OC[C@H](O)[C@@H]3O)O[C@H](CO)[C@@H](O)[C@@H]2O)[C@H](O)[C@H](O)[C@H]1O (stereo partly drawn)
IC50 [9]: 1.81 µM
IC50 [10]: 1.01 µM

C=CCN1CC(=O)N2C(CN(Cc3cccc4cn(C)nc34)C[C@@H]2Cc2ccc(OP(=O)(O)O)cc2)N1C(=O)NCc1ccccc1 (stereo partly drawn)
IC50 [11]: 0.91 µM

O=C1[C@@H](Cc2ccccc2)N2C(=O)CCN(C(=O)NCc3ccccc3)[C@@H]2CN1Cc1cccc2ccccc12
IC50 [12]: 21.5 µM

C=C1C(=O)[C@@]23[C@H](O)C[C@@H]4C(C)(C)CC[C@H](O)[C@@]4(COC(C)=O)[C@@H]2CC[C@H]1[C@H]3O
IC50 [13]: 16.8 µM

C[C@H]1[C@H]2N(C(=O)CN(C)N2C(=O)NCc2ccccc2)[C@@H](Cc2ccc(OP(=O)(O)O)cc2)C(=O)N1Cc1cccc2cccnc12
IC50 [14]: 0.15 µM

CC[C@]12CCCN3CCc4c(n(c5ccccc45)[C@@H](c4ccc(O)c5c4N[C@H]4CC[C@]6(CC)CCCN7CC[C@]54[C@@H]76)C1)C32 (stereo partly drawn)
IC50 [15]: 4.94 µM
IC50 [16]: 4.47 µM

O=C(NCc1ccccc1)N1CCC(=O)N2C1CN(Cc1cccc3ccccc13)C[C@@H]2Cc1ccc(O)cc1 (stereo partly drawn)
IC50 [17]: 8.07 µM

Cc1ccc(Nc2nc(NS(=O)(=O)c3cc(C)c(C)cc3C)n[nH]2)cc1
IC50 [18]: 5 µM

Cn1ncc2cc(CCc3nn[nH]n3)ccc21
IC50 [19]: 3.14 µM

CN1CC(=O)N2C(CN(Cc3cccc4ccccc34)C[C@@H]2Cc2ccc(O)cc2)N1C(=O)NCc1ccccc1 (stereo partly drawn)
GI50 [20]: 0.98 µg/mL (≈ 1.78 µM)

COc1cc(OC)c2c(c1)O[C@@]1(c3ccc(Br)cc3)[C@H](c3ccccc3)C[C@@H](O)[C@@]21O
IC50 [21]: 0.01 µM

C[C@H]1[C@H](OC(=O)CCC(=O)O)O[C@@H]2O[C@@]3(C)CC[C@H]4[C@H](C)CC[C@@H]1[C@@]24OO3 [ARTESUNATE]
IC50 [22]: 20.3 µM

COc1cc2c(cc1OC)[C@@]13CCN4CC5=CCO[C@H]6CC(=O)N2[C@H]1[C@H]6[C@H]5C[C@H]43 [BRUCINE]
IC50 [23]: 18.2 µM

Nc1ccc(O)c(C(=O)O)c1 [MESALAMINE]
IC50 [24]: 20000 µM

CC(=O)c1cc2c(o1)C(=O)c1ccccc1C2=O [NAPABUCASIN]
IC50 [25]: 0.3 µM

O=C(Nc1ccc([N+](=O)[O-])cc1Cl)c1cc(Cl)ccc1O [NICLOSAMIDE]
IC50 [26]: 1 µM

CO[C@@H]1C[C@@H](C[C@H]2CC[C@H](C)[C@H]([C@@H](C)C(=O)O)O2)O[C@]2(O[C@](C)([C@H]3CC[C@@](C)([C@@H]4O[C@@H]([C@H]5O[C@@](O)(CO)[C@H](C)C[C@@H]5C)C[C@@H]4C)O3)C[C@H]2C)[C@@H]1C [NIGERICIN]
IC50 [27]: 8.48 µM
IC50 [28]: 1.39 µM

O=c1[nH]c2ccccc2n1C1CCN(CCCC(c2ccc(F)cc2)c2ccc(F)cc2)CC1 [PIMOZIDE]
IC50 [29]: 10 µM
IC50 [30]: 10 µM

CC(C)[C@]12O[C@H]1[C@@H]1O[C@]13[C@]1(O[C@H]1C[C@H]1C4=C(CC[C@@]13C)C(=O)OC4)[C@@H]2O [TRIPTOLIDE]
IC50 [31]: 0.05 µM

CC[C@H](C)[C@@H]1NC(=O)[C@@H]2CCCN2C(=O)[C@H](CC(C)C)OC(=O)CCNC(=O)[C@H](C)N(C)C(=O)[C@H](C(C)C)N(C)C1=O [destruxin B] (cyclo([Hica(2S)]PI[NMeV][NMeA][βAla]))
IC50 [32]: 6.3 µM
IC50 [33]: 6.25 µM
